The text below walks through data of patent US10988444B2, “Antimicrobial compounds” (NEWSOUTH INNOVATIONS PTY LIMITED, priority 2016, dated 2021).

Where two headings read alike, the source gives them in different places.

The test system of experiment [1] is S. aureus (SA38). The experiment is described as follows: Minimal inhibitory concentration (MIC) assay, Example 2. The conditions noted are these: Staphylococcus aureus, TSB, 37° C., 24 h. Type of experiment: cell-based. On the procedure:
A single colony of bacteria was cultured overnight in TSB at 37° C. The resulting bacterial culture was collected by centrifugation and re-suspended in TSB twice. The optical density (OD) of the resulting culture was adjusted to OD600=0.1 in TSB (equivalent to 10^8 colony forming unit (CFU)/mL bacteria), and was further diluted to 10^5 CFU/mL in TSB. 100 μL of the bacterial solution was then added to wells of a 96-well plate containing 100 μL serially diluted compound, with final concentration ranging from 8-250 μM. The plates were then incubated at 37° C. for 24 h and the data was recorded by measuring the OD value at 600 nm using a Wallac Victor (Perkin-Elmer) microplate reader. […] Each experiment was performed in triplicate and was repeated in two independent experiments. The results of the MIC assay are given below in Table 2.

The nature of experiment [2]: Membrane conduction, tBLMs containing 30% POPG, Example 2. The conditions noted are these: negatively charged lipid, 50 μM, preliminary study. The text has this:
Tethered bilayer lipid membranes (tBLMs) associated with alternating current electrical impedance spectroscopy techniques were employed to determine whether the compounds (24a, 38b, 42d, 43d) are lytic to cell membranes. Sparsely tethered tBLMs containing 30% palmitoyl-oleoyl-phosphati-dylglycerol (POPG) were created using the solvent-exchange technique described by Cranfield et al. in 2015 (see Cranfield, C. G.; Bettler, T.; Cornell, B. Langmuir 2015, 31 (1), 292-298). The tBLM conduction responses of compounds (24a, 38b, 42d, 43d) were compared to that of LL-37, a cathelicidin AMP that is known to permeabilise membranes.

For experiment [3], the system named is MRC-5 normal human lung fibroblasts. The experiment in a line: Cytotoxicity assay, Alamar blue, Example 2. Type of experiment: cell-based. The conditions noted are these: Homo sapiens, MRC5; MRC-5, concentration which killed half of the cells. On the procedure:
The in vitro toxicity of the compounds (24a, 38b, 42d, 43d) was determined against MRC-5 normal human lung fibroblasts using the Alamar blue assay (see O'Brien, J.; Wilson, I.; Orton, T.; Pognan, F. Eur. J. Biochem. 2000, 267 (17), 5421-5426). A dose-response curve for each compound was generated to determine the IC50 values (concentration of compound which killed half of the cells) and the IC50 values were then used to determine the therapeutic window (IC50 value divided by MIC value) and specificity of the compounds (Table 3).

Experiment [4] relates to E. coli. The experiment is described as follows: Biofilm disruption assay, established biofilms, crystal violet staining. The conditions noted are these: 250 μM, 24 h treatment. Type of experiment: cell-based. On the procedure: (§1) Bacterial cultures were grown in TSB media for overnight at 37° C. with shaking at 150 r.p.m. Cultures were diluted (1:20) in YPD medium and 200 μl aliquots were dispensed to flat bottom 96-well plate wells (Sarstedt Australia). Cultures were supplemented with varying concentrations of synthetic compounds dissolved in water. For pre-established biofilm assay, cultures were grown in 96-well plate wells overnight prior to supplementation with synthetic compounds. Control cultures were supplemented with an equal amount of DMSO. Plates were sealed with self-adhesive microplate sealers (TopSeal-A, PerkinElmer) to allow air diffusion and to prevent condensation. Cultures were incubated overnight at 37° C. with shaking at 150 r.p.m. Biofilms adhered on polystyrene substratum were quantified by crystal violet staining as described previously (see Wiegand, I.; Hilpert, K.; Hancock, R. E. W. Nat. Protocols 2008, 3 (2), 163-175). All cultures were prepared in triplicates. Error bars represent the standard error of three independent experiments (n=3).
(§2) The biofilm disruption activities of the compounds were investigated using crystal violet staining according to a previously published protocol (G. A. O'Toole, J Vis Exp, 2011, (47), pii: 2437, DOI: 10.3791/2437, 2437). The ability of compounds (34-38, 51-56, 61, 62, 65 and 66) to disrupt the established biofilms of the Gram-positive bacteria S. aureus and the Gram-negative bacteria Pseudomonas aeruginosa, Serratia marcescens and E. coli, was determined at a concentration of 250 μM. In this assay, bacterial cultures were grown on a polystyrene substratum overnight prior to treatment with the compounds. In addition, the ability of these compounds to inhibit the formation of biofilms of P. aeruginosa and S. marcescens was also investigated at 250 μM, whereby the bacterial cultures were grown in the presence of test compounds.

The subject of experiment [5] is S. aureus. The description is as above. Type of experiment: cell-based. The conditions noted are these: 250 μM, 24 h treatment. Here is the method: as §1, §2
Experiment [6] concerns Pseudomonas aeruginosa (PAO1). The experiment is described as above. The experiment is classed as cell-based. The conditions noted are these: 250 μM, 24 h treatment. Here is the method:
as §1, §2

Experiment [7] has as its system E. coli. The experiment in a line: Minimal inhibitory concentration (MIC) determination, Example 1. The conditions noted are these: Escherichia coli, 24 h, MHB, 37° C., read-out: Minimum inhibitory concentration (MIC) E. coli. Type of experiment: cell-based. On the procedure: (§3) The antibacterial activity of the compounds was determined by the determination of minimal inhibitory concentration (MIC) by following the previously published protocol (see Nizalapur, S.; Ho, K. K.; Kimyon, Ö.; Yee, E.; Berry, T.; Manefield, M.; Cranfield, C. G.; Willcox, M.; Black, D. S.; Kumar, N. Org. Biomol. Chem. 2016, 14, 3623). The compounds to be tested were dissolved and diluted in autoclaved Millipore water. A single colony of bacteria was cultured overnight in TSB at 37° C. The resulting bacteria were collected by centrifugation and re-suspended in the same volume of MHB twice. Optical density (OD) of the resulting culture was adjusted to 0.1 at 600 nm (10^8 CFU/mL) in MHB, and the adjusted culture was further diluted to […] in MHB. Then, 100 μL of the bacterial solution was added to wells of a 96-well plate containing 100 μL of serially diluted compound. Two controls were also prepared: one containing 100 μL of MHB media and 100 μL sterile water, and the other containing 100 μL of bacterial solution and 100 μL sterile water. […] The MIC value was determined as the lowest concentration of compound that inhibited the complete growth of the bacteria (i.e. OD similar to that of the control having no bacteria). Each experiment was performed in triplicate and was repeated in three independent experiments.
(§4) The results of the MIC assay are given below in Table 1.

Experiment [8] has as its system S. aureus. Described as above. Type of experiment: cell-based. The conditions noted are these: Staphylococcus aureus. Here is the method: as §3, §4
Another experiment concerns S. aureus biofilms. The experiment in a line: Confocal microscopy of established biofilms, Live/dead stain. The experiment is classed as cell-based. The conditions noted are these: 250 μM.
The subject of another experiment is S. marcescens. The experiment in a line: Biofilm disruption assay, established biofilms, crystal violet staining. Type of experiment: cell-based, Serratia marcescens. The conditions noted are these: 250 μM, 24 h treatment. Here is the method:
as §1, §2

Experiment [9] concerns MRC-5 normal human lung fibroblasts. The experiment is described as follows: Toxicity assay, Alamar blue, Example 1. Type of experiment: cell-based. The conditions noted are these: 72 h incubation. Here is the method:
The normal human lung fibroblasts MRC-5 were cultured in minimal essential medium (MEM, Invitrogen) supplemented with 10% foetal calf serum (FCS), 1% L-glutamine-penicillin-streptomycin, 2% sodium bicarbonate, 1% non-essential amino acids (NEAA) and 1% sodium pyruvate. The cell line was maintained at 37° C. in 5% CO2 as an adherent monolayer and was passaged upon reaching confluence by standard cell culture techniques. MRC-5 cells were seeded at 2×10^4 cells per well in 96-well plates to ensure full confluence (quiescence). Cells were treated 24 h after seeding with 0.1 to 1000 μM of compounds. After 72 h drug incubation, the treated media was replaced with fresh media containing 10% Alamar blue and the cells were incubated for another 6 h. The metabolic activity was detected by spectrophotometric analysis by assessing the absorbance of Alamar blue as previously described by Pasquier et. al (see Pasquier, E.; Ciccolini, J.; Carre, M.; Giacometti, S.; Fanciullino, R.; Pouchy, C.; Montero, M.-P.; Serdjebi, C.; Kavallaris, M.; André, N. Oncotarget 2011, 2, 797).
Cell proliferation was determined and expressed as a percentage of untreated control cells. The determination of IC50 values was performed using GraphPad Prism 6 (San Diego, Calif., USA).
To further evaluate the utility of these novel guanylated peptidomimetics for medical applications, it was essential to determine their specificity towards bacterial cells over mammalian cells.
Background: Resazurin is reduced to fluorescent resorufin, in cell work by metabolically active cells.

The subject of experiment [10] is Pseudomonas aeruginosa (PAO1). The experiment is described as follows: Biofilm inhibition assay (inhibition of biofilm formation), crystal violet staining. The experiment is classed as cell-based. The conditions noted are these: 24 h, read-out: inhibition of biofilm formation by P. aeruginosa. On the procedure: as §1, with “no-established” for “pre-established”, “along” for “prior to supplementation”, “water.” for “DMSO.”
as §2

A further experiment deals with S. marcescens biofilms. The experiment is described as follows: Confocal microscopy of non-established biofilms, Live/dead stain. The experiment is classed as cell-based, Serratia marcescens. The conditions noted are these: 250 μM. Here is the method:
S. aureus and Serratia marcescens biofilms were grown by adding 1.5 ml of bacterial cells (OD600 nm˜0.600) suspended in fresh TSB medium into 35×10 mm polystyrene petri dishes and incubated over 24 h at 37° C. in a shaking incubator at 120 r.p.m. Cultures were supplemented with varying concentrations of synthetic compounds dissolved in water. Control cultures were supplemented with an equal amount of water. After 24 h, the biofilm growth medium was discarded and the biofilms were gently rinsed 3 times with PBS (pH: 7.0) in order to remove any planktonic bacterial cells. The remaining substratum adhered biofilms were then stained with Live/dead stain (Invitrogen, Oregon, USA) for 20 mins in the dark and then subjected to confocal microscopy. Stained biofilms were visualized with FV 1200 Confocal microscope.

In experiment [11] the test system is S. aureus (SA38). The conditions noted are these: Literature value; cited from earlier work.
Setting [12] is: MHB, 37° C., 24 h, read-out: Minimum inhibitory concentration (MIC) S. aureus.

In the experiment with S. aureus (SA38) [1], `CCCCCCCCS(=O)(=O)Nc1ccc(Br)cc1C(=O)C(=O)NCCCNC(=N)N.Cl` [Compound 43d, 2-(5-Bromo-2-(octylsulfonamido)phenyl)-N-(3-guanidinopropyl)-2-oxoacetamide hydrochloride] registered an MIC of 12 µM. Moreover, the tBLM conduction response result in experiment [2] is “showed conduction responses”. Further, the IC50 (commonly the concentration that gives 50% inhibition) in [3] worked out at 178 µM.

`COC(=O)C(CCCN)NC(=O)C(CCCCN)NC(=O)C(=O)c1cc(Br)ccc1NC(=O)c1ccc2ccccc2c1.Cl.Cl` (stereo not drawn) [Compound 62, Methyl 2-(2-(2-(2-(2-naphthamido)-5-bromophenyl)-2-oxoacetamido)-6-aminohexanamido)-5-aminopentanoate dihydrochloride]: the “disruption of established biofilms of E. coli” value in the experiment with E. coli [4] amounted to 42%. Also, the “disruption of established biofilms of S. aureus” value with S. aureus [5] is given as 61%. Also, in experiment [6], the “disruption of established biofilms of P. aeruginosa” value worked out at 46%. The MIC in the experiment with E. coli [7] was 21 µg/mL; with S. aureus [8] (setting [12]), 23 µg/mL. Further, the “confocal microscopy, effect on pre-established S. aureus biofilm” value in the experiment with S. aureus biofilms is given as “disrupted the pre-established biofilm significantly”. Besides, the “disruption of established biofilms of S. marcescens” value in the experiment on S. marcescens was 49%.

On to `COC(=O)[C@H](CCCNC(=N)N)NC(=O)[C@H](CCCNC(=N)N)NC(=O)C(=O)c1ccccc1NC(=O)c1ccc2ccccc2c1.Cl.Cl` [Compound 65, Methyl (2-(2-(2-naphthamido)phenyl)-2-oxoacetyl)arginylargininate dihydrochloride], for which the “toxicity (IC50) against MRC-5 human fibroblast cells” value in experiment [9] is given as “not reaching a 50% reduction of cell viability at the highest tested dose”. In addition, in experiment [10], the inhibition (usually the percentage by which the read-out fell short of the control) at 250 µM came out at 65%. In addition, in the experiment on S. marcescens biofilms, the “confocal microscopy, effect on S. marcescens biofilm formation” value is given as “inhibited biofilm formation”. In addition, the MIC amounted to 90 µg/mL in the experiment with E. coli [7]; 18 µg/mL with S. aureus [8] (setting [12]); 31 µM in the experiment on S. aureus [8] (MIC in μM as compared with MRC-5 IC50, read-out: equivalent MIC values). Also, the “disruption of established biofilms of S. marcescens” value in the experiment on S. marcescens came out at 60%.

As for MSI-78, the MIC in the experiment with S. aureus (SA38) [11] was 13 µM.
